Results on 28 compounds are retold here after paper PMC8138313, “Identification, Selection and Immune Assessment of Liver Stage CD8 T Cell Epitopes From Plasmodium falciparum” (Frontiers in Immunology, 2021).

Where a SMILES comes first, the peptide text is derived from it. Some results are limits rather than exact numbers.

The first test concerns the target HLA A*0301 (Homo sapiens, UniProt P04439). In words: HLA class I binding assay (cell-free competition, fluorescence polarization).
In the case of `CC(C)C[C@H](NC(=O)[C@H](C)N)C(=O)N[C@@H](CC(N)=O)C(=O)N[C@@H](CC(C)C)C(=O)N[C@@H](Cc1ccccc1)C(=O)N[C@@H](Cc1ccccc1)C(=O)N[C@@H](CCC(N)=O)C(=O)N[C@@H](CC(N)=O)C(=O)N[C@@H](CCCCN)C(=O)O` (H-ALNLFFQNK-OH), the IC50 was 1.14 µM.

`CC(C)C[C@H](NC(=O)[C@H](Cc1ccccc1)NC(=O)[C@H](CO)NC(=O)[C@H](Cc1ccccc1)NC(=O)[C@H](CS)NC(=O)[C@@H](N)Cc1ccccc1)C(=O)N[C@@H](CCCCN)C(=O)N[C@@H](CO)C(=O)N[C@@H](CO)C(=O)N[C@@H](CCCCN)C(=O)O` (H-FCFSFLKSSK-OH) yielded an IC50 of 9.21 µM.

Turning to `CSCC[C@H](NC(=O)[C@@H](NC(=O)[C@H](CC(=O)O)NC(=O)[C@H](Cc1c[nH]cn1)NC(=O)[C@@H]1CCCN1C(=O)[C@H](CO)NC(=O)[C@H](CC(C)C)NC(=O)CN)[C@@H](C)O)C(=O)N[C@@H](CCC(N)=O)C(=O)N[C@@H](CCCCN)C(=O)O` (H-GLSPHDTMQK-OH), the IC50 came out at 1.1 µM.

Consider `CC[C@H](C)[C@H](N)C(=O)N[C@@H](CC(C)C)C(=O)N[C@H](C(=O)N[C@@H](CO)C(=O)N[C@@H](CCCNC(=N)N)C(=O)N[C@@H](CC(C)C)C(=O)N[C@H](C(=O)N[C@@H](CC(C)C)C(=O)N[C@@H](CCCCN)C(=O)O)[C@@H](C)O)[C@@H](C)CC` (H-ILISRLTLK-OH), for which the IC50 is 0.22 µM.

For `CC[C@H](C)[C@H](NC(=O)[C@H](Cc1ccccc1)NC(=O)[C@H](CO)NC(=O)[C@H](CO)NC(=O)[C@@H](NC(=O)[C@@H](N)CCCCN)[C@@H](C)CC)C(=O)N[C@@H](CC(N)=O)C(=O)N[C@@H](CCC(N)=O)C(=O)N[C@@H](CCCNC(=N)N)C(=O)N[C@@H](CCCCN)C(=O)O` (H-KISSFINQRK-OH), the 50% inhibitory concentration (IC50) amounted to 0.316 µM.

Take `CSCC[C@H](NC(=O)[C@H](CC(N)=O)NC(=O)[C@H](Cc1ccc(O)cc1)NC(=O)[C@H](CC(N)=O)NC(=O)[C@H](CC(=O)O)NC(=O)[C@H](Cc1ccc(O)cc1)NC(=O)[C@H](CC(N)=O)NC(=O)[C@@H](N)CCCCN)C(=O)N[C@@H](CCCCN)C(=O)O` (H-KNYDNYNMK-OH): the IC50 came to 2.51 µM.

The compound `CC[C@H](C)[C@H](NC(=O)[C@H](CCSC)NC(=O)[C@H](CCCCN)NC(=O)[C@H](CCSC)NC(=O)[C@@H](NC(=O)[C@@H](N)CC(C)C)[C@@H](C)O)C(=O)N[C@@H](CC(N)=O)C(=O)N[C@@H](CC(N)=O)C(=O)N[C@@H](CCCCN)C(=O)O` (H-LTMKMINNK-OH) came in with an IC50 of 0.472 µM.

`CSCC[C@H](N)C(=O)N[C@@H](CC(=O)O)C(=O)N[C@@H](Cc1ccccc1)C(=O)N1CCC[C@H]1C(=O)N[C@@H](CCCCN)C(=O)N[C@@H](CC(C)C)C(=O)N[C@@H](CC(C)C)C(=O)N[C@@H](CC(N)=O)C(=O)N[C@@H](CCCCN)C(=O)O` (H-MDFPKLLNK-OH) gave an IC50 of 2.08 µM.

With `CC(C)C[C@H](NC(=O)[C@H](CC(N)=O)NC(=O)[C@H](CC(C)C)NC(=O)[C@@H](N)CC(N)=O)C(=O)N[C@@H](CS)C(=O)NCC(=O)N[C@@H](CCCCN)C(=O)N[C@@H](Cc1ccc(O)cc1)C(=O)N[C@H](C(=O)N[C@@H](CCCCN)C(=O)O)[C@@H](C)O` (H-NLNLCGKYTK-OH; N-terminus assumed), the IC50 is more than 1000 µM.

In turn, `CC[C@H](C)[C@H](NC(=O)[C@@H]1CCCN1C(=O)[C@H](Cc1ccc(O)cc1)NC(=O)[C@H](CC(=O)O)NC(=O)[C@H](Cc1ccccc1)NC(=O)[C@@H](NC(=O)[C@@H](N)CCC(N)=O)C(C)C)C(=O)N[C@@H](CCC(=O)O)C(=O)N[C@@H](CCCCN)C(=O)O` (H-QVFDYPIEK-OH) registered an IC50 of 1.57 µM.

`CC[C@H](C)[C@H](NC(=O)[C@@H](N)CCCNC(=N)N)C(=O)N[C@@H](CO)C(=O)NCC(=O)N[C@@H](Cc1c[nH]c2ccccc12)C(=O)N[C@@H](CCCCN)C(=O)NCC(=O)N[C@@H](CC(=O)O)C(=O)N[C@@H](CC(N)=O)C(=O)N[C@@H](CCCCN)C(=O)O` (H-RISGWKGDNK-OH): the IC50 was 0.548 µM.

On to `CC[C@H](C)[C@H](NC(=O)[C@H](CO)NC(=O)[C@H](CCCNC(=N)N)NC(=O)[C@H](CC(N)=O)NC(=O)[C@H](CC(N)=O)NC(=O)[C@H](CC(C)C)NC(=O)[C@@H](N)CCCNC(=N)N)C(=O)N[C@@H](Cc1ccc(O)cc1)C(=O)N[C@@H](CCCCN)C(=O)O` (H-RLNNRSIYK-OH), for which the half-inhibitory concentration (IC50) worked out at 0.224 µM.

`CC(C)C[C@H](NC(=O)[C@H](Cc1ccccc1)NC(=O)[C@@H](NC(=O)[C@H](CCCCN)NC(=O)[C@H](CCCCN)NC(=O)[C@H](CO)NC(=O)[C@@H](N)CCCNC(=N)N)[C@@H](C)O)C(=O)N[C@H](C(=O)N[C@@H](CCCCN)C(=O)O)C(C)C` (H-RSKKTFLVK-OH) had an IC50 of 0.409 µM.

In turn, `CC[C@H](C)[C@H](NC(=O)[C@H](CO)NC(=O)[C@H](Cc1ccccc1)NC(=O)[C@@H](NC(=O)[C@H](CO)NC(=O)CNC(=O)[C@H](CO)NC(=O)[C@H](CO)NC(=O)[C@@H](N)CCCNC(=N)N)[C@@H](C)O)C(=O)N[C@@H](CCCCN)C(=O)O` (H-RSSGSTFSIK-OH) displayed an IC50 of 0.326 µM.

In turn, `CSCC[C@H](NC(=O)[C@H](CC(N)=O)NC(=O)[C@H](CCC(N)=O)NC(=O)[C@H](CC(N)=O)NC(=O)[C@H](C)NC(=O)[C@H](CCSC)NC(=O)[C@@H](N)[C@@H](C)O)C(=O)N[C@@H](CC(N)=O)C(=O)N[C@@H](Cc1ccc(O)cc1)C(=O)N[C@@H](CCCCN)C(=O)O` (H-TMANQNMNYK-OH) displayed an IC50 of 0.209 µM.

The next test has as its target HLA A*0201 (Homo sapiens, UniProt P04439, D140Y/D185E/D98H/E176V/E277Q/G131W/G231S/I119V/I121R/I166T/I218V/L300P/L318F/N151K/N90K/P208A/P217A/Q86G/Q94H/R138H/R169H/T345S). The description is as above.
Consider `CC(C)C[C@H](NC(=O)[C@H](CC(C)C)NC(=O)[C@H](CC(N)=O)NC(=O)[C@H](CC(C)C)NC(=O)[C@H](CC(C)C)NC(=O)[C@@H](N)Cc1ccccc1)C(=O)N[C@@H](CC(N)=O)C(=O)N[C@@H](CCC(=O)O)C(=O)N[C@@H](Cc1c[nH]cn1)C(=O)N[C@H](C(=O)O)C(C)C` (H-FLLNLLNEHV-OH), for which the IC50 worked out at 1.68 µM.

Turning to `CC[C@H](C)[C@H](NC(=O)CN)C(=O)N[C@@H](C)C(=O)N[C@@H](CC(N)=O)C(=O)N[C@@H](CC(=O)O)C(=O)N[C@@H](CC(C)C)C(=O)N[C@@H](CO)C(=O)N[C@H](C(=O)N[C@@H](CC(C)C)C(=O)O)[C@@H](C)O` (H-GIANDLSTL-OH), the IC50 came to 5.73 µM.

`CC[C@H](C)[C@H](N)C(=O)N[C@@H](CC(C)C)C(=O)N[C@@H](Cc1ccc(O)cc1)C(=O)N[C@@H](CCCCN)C(=O)N[C@@H](CC(N)=O)C(=O)N[C@H](C(=O)N[C@@H](CC(=O)O)C(=O)N[C@@H](CS)C(=O)N[C@H](C(=O)O)C(C)C)[C@@H](C)CC` (H-ILYKNIDCV-OH) yielded an IC50 of 1.4 µM.

The compound `CC[C@H](C)[C@H](NC(=O)[C@H](CC(=O)O)NC(=O)[C@@H](NC(=O)[C@H](CO)NC(=O)[C@@H](NC(=O)[C@@H](N)CC(C)C)[C@@H](C)CC)[C@@H](C)O)C(=O)N[C@H](C(=O)N[C@@H](Cc1ccccc1)C(=O)N[C@@H](CC(C)C)C(=O)O)[C@@H](C)CC` (H-LISTDIIFL-OH) displayed an IC50 of 0.614 µM.

For the compound `CC(C)C[C@H](NC(=O)[C@H](CC(N)=O)NC(=O)[C@H](C)NC(=O)[C@H](C)NC(=O)[C@H](CCCCN)NC(=O)[C@H](CCC(N)=O)NC(=O)[C@H](Cc1ccccc1)NC(=O)[C@H](CC(C)C)NC(=O)[C@@H](N)CC(C)C)C(=O)O` (H-LLFQKAANL-OH), the IC50 was found to be 1.88 µM.

Compound `CC(C)C[C@H](NC(=O)[C@@H](N)CC(N)=O)C(=O)N[C@@H](Cc1ccccc1)C(=O)N[C@@H](CCC(=O)O)C(=O)N[C@@H](Cc1c[nH]c2ccccc12)C(=O)N[C@@H](CO)C(=O)N[C@@H](CCCCN)C(=O)N[C@H](C(=O)N[C@H](C(=O)O)C(C)C)[C@@H](C)O` (H-NLFEWSKTV-OH) had an IC50 of 1.62 µM.

In turn, `CC[C@H](C)[C@H](NC(=O)[C@H](CO)NC(=O)[C@H](CCCCN)NC(=O)[C@H](CC(N)=O)NC(=O)[C@H](CCC(N)=O)NC(=O)[C@H](Cc1ccccc1)NC(=O)[C@H](Cc1ccccc1)NC(=O)[C@H](CC(C)C)NC(=O)[C@@H](N)CC(N)=O)C(=O)O` (H-NLFFQNKSI-OH; N-terminus assumed) registered an IC50 of more than 1000 µM.

Take `CC[C@H](C)[C@H](NC(=O)[C@H](CC(N)=O)NC(=O)[C@H](CCC(N)=O)NC(=O)[C@H](CCC(N)=O)NC(=O)[C@H](Cc1ccc(O)cc1)NC(=O)[C@H](CCSC)NC(=O)[C@@H](N)CC(N)=O)C(=O)N1CCC[C@H]1C(=O)N[C@@H](CC(C)C)C(=O)O` (H-NMYQQNIPL-OH): the IC50 amounted to 331 µM.

Take `CC[C@H](C)[C@H](NC(=O)[C@@H](N)CO)C(=O)N[C@@H](CO)C(=O)N[C@@H](CC(=O)O)C(=O)N[C@@H](Cc1ccc(O)cc1)C(=O)N[C@H](C(=O)N[C@@H](CCCCN)C(=O)N[C@@H](CO)C(=O)N[C@@H](CC(C)C)C(=O)O)[C@@H](C)O` (H-SISDYTKSL-OH): the IC50 was 352 µM.

The compound `CC[C@H](C)[C@H](NC(=O)[C@H](CC(N)=O)NC(=O)[C@@H](NC(=O)[C@H](CCSC)NC(=O)[C@@H](N)CO)[C@@H](C)O)C(=O)N1CCC[C@H]1C(=O)N[C@@H](CCSC)C(=O)N[C@@H](CC(N)=O)C(=O)N[C@H](C(=O)O)C(C)C` (H-SMTNIPMNV-OH) gave a 50% inhibitory concentration (IC50) of 0.244 µM.

`CC[C@H](C)[C@H](NC(=O)CNC(=O)[C@H](Cc1ccc(O)cc1)NC(=O)[C@H](Cc1c[nH]cn1)NC(=O)[C@@H](NC(=O)[C@@H](N)C(C)C)[C@@H](C)CC)C(=O)N[C@@H](CC(N)=O)C(=O)N1CCC[C@H]1C(=O)N[C@H](C(=O)O)C(C)C` (H-VIHYGINPV-OH): the IC50 came out at 1.7 µM.

In turn, `CC[C@H](C)[C@H](NC(=O)[C@H](CC(=O)O)NC(=O)[C@H](CC(N)=O)NC(=O)[C@H](CC(N)=O)NC(=O)[C@H](CC(C)C)NC(=O)[C@@H](N)Cc1c[nH]c2ccccc12)C(=O)N[C@@H](Cc1ccc(O)cc1)C(=O)N[C@@H](CC(N)=O)C(=O)N[C@H](C(=O)O)C(C)C` (H-WLNNDIYNV-OH) returned an IC50 of 0.16 µM.

Consider `CC[C@H](C)[C@H](NC(=O)[C@@H](NC(=O)[C@@H](NC(=O)[C@H](CCCCN)NC(=O)[C@H](CC(N)=O)NC(=O)[C@H](CCCCN)NC(=O)[C@H](CC(N)=O)NC(=O)[C@@H](NC(=O)[C@@H](NC(=O)[C@@H](N)Cc1ccc(O)cc1)[C@@H](C)CC)[C@@H](C)O)C(C)C)[C@@H](C)O)C(=O)O` (H-YITNKNKVTI-OH; N-terminus assumed), for which the IC50 is more than 1000 µM.
